Columns and labels:
retinoblastoma = experiment: Murine transgenic model of retinoblastoma, subconjunctival treatment; assay type: in vivo, SV-40 Large T antigen positive mice
Procedure: A murine transgenic model of retinoblastoma was used in which SV-40 Large T antigen positive mice develop bilateral retinoblastoma resembling human pediatric retinoblastoma. In this model, tumors first appear at 4 weeks of age and develop in a stable and reproducible manner (Hayden et al., Arch Ophthalmol. 2002;120(3):353-9). In one experiment, 12-week old animals (n=48) were treated with a single 20 ul subconjunctival injection of CA4P (100 mg/ml) in the right eye only. Control mice (n=8) were treated with a balanced salt solution (“BSS”). Eyes were sampled by enucleation at Days 1, 3, 7, 14, 21, and 28 post treatment (n=8 eyes per sample). Samples were fixed, paraffin embedded, serially sectioned, and stained with heometoxylin, eosin, and PAS prior. Each tissue sample was examined for histopathological tumor vascular response.
In a separate dosing experiment, animals (n=48) were treated with 6 serial biweekly subconjunctival injections of CA4P, at concentrations of 100, 10, 1, 0.1 or 0.01 mg/ml in a volume of 20 ul (n=6 eyes per sample). A control group (n=6) received serial subconjunctival injections of BSS. Eyes were enucleated at 28 days post-treatment and examined for tumor volume reduction. FIG. 5B illustrates the dose-dependent effect of CA4P on tumor vascular volume in comparison to control.

[1] = Primary ocular irritation, sub-Tenon's injection; assay type: in vivo, rabbits; settings: for Ocular irritation vs negative control eyes: two 0.1 ml sub-Tenon's injections, 24-72 h
Procedure: The test article, CA4P, was evaluated for primary ocular irritation. Two 0.1 ml injections of the appropriate CA4P concentration (0.1, 1.0, 10 and 100 mg/ml) were injected into the sub-Tenon's space of the right eye of two rabbits. A 0.2 ml portion of buffered saline solution was injected into the sub-Tenon's space of the left eyes to serve as a negative control. Ocular reactions were evaluated at 24, 48 and 72 hours after the sample instillation. On day 3, rabbits were euthanized and eyes were removed. The specimens were fixed and embedded, and histology was performed. Histopathologic changes in the eye tissues were recorded with an emphasis placed on examination of changes in the sub-Tenon's space.

[2] = test system: choroidal neovascularization; experiment: Krypton laser murine model of choroidal neovascularization; assay type: in vivo, C57BL/6J mouse; settings: for Average Vessel Lumen Area: vehicle 0.0129886
Procedure: Choroidal neovascularization is a major cause of severe vision loss in patients with age-related or wet macular degeneration. To investigate the capacity of CA4P to inhibit vascular growth in the choroids, a murine model of Choroidal Neovascularization was tested. In this model the investigator used a krypton laser to create a wound on the Bruch's membrane of a C57BL/6J mouse. Each eye received several burns. The burn elicited a classic wound-healing response that included neovascularization within the choroid. This krypton laser photocoagulation method has been described in Tobe et al., Am. J. of Pathology, 1998, 153(5):1641-6. […] Histopathology and fluorescein angiography were used to identify neovascularization surrounding the burn. Electron microscopy was used to measure the lumen diameter of fenestrated neovasculature within the choroidal neovascular lesions. Table 12 illustrates the results of CA4P treatment on the average vessel lumen area.

[3] = Biodistribution of 14C-CA4P following intravitreal injection; assay type: in vivo, New Zealand rabbits
Procedure: ^14C-CA4P (OXiGENE Inc., Watertown, Mass.) was resuspended in 100 ul volume of saline solution and injected with a 30 G needle into the right eyes of anesthesized male New Zealand rabbits (4 months old, 1.8-2.5 kg, n=3 per sample). Three different concentrations of ^14C-CA4P were tested (1, 10, 100 mg/ml) corresponding to doses of 1, 5, and 5 uCi of applied radioactivity respectively. A blank control group was also included. Rabbits were anaesthetized at 1, 6, 24, and 48 hours for blood sampling. After blood collection, the animals were euthanized by Phenobarbital injection and the treated right eyes were removed from all test animals. Ocular tissue samples were dissected from the cornea, aqueous humor, vitreous humor, choroid, or retina, placed in 20-mi glass scintillation vials, vortexed, and incubated for 24 hrs with 500 ul digesting fluid. Plasma was separated from whole blood by centrifugation (1,800 g for 10 minutes). Both ocular tissue samples and plasma were incubated at room temperature with 16 ml of Hionic Fluor™ scintillation fluid for a period of 24 hours prior to radioactivity counting. Each sample was counted for 5 minutes in a Betamatic V counter (Bio-Tek Kontron Instruments, St Quentin en Yvelines, France). The conversion of counts per minute (“cpm”) into disintegrations per minute (“dpm”) was performed automatically by the beta-counter, using calibration curves obtained from ^14C-standards and quenching curves from the respective blank matrices spiked with ^14C-standards. The concentration of drug was determined according to nanogram equivalents of CA4P (ng-Eq/g of tissue) which was calculated from the measured dpm value, the weight of the tissue specimen, and the specific activity of the drug (0.37 mCi/mg), followed by subtraction of the corresponding background value from control eye tissue. A tissue concentration of 1 uM CA4P is equal to […] tissue.

## COc1ccc(/C=C\c2cc(OC)c(OC)c(OC)c2)cc1OP(=O)([O-])[O-].[Na+].[Na+] [CA4P, combretastatin A4 disodium phosphate]
retinoblastoma; 6 serial biweekly subconjunctival injections, dose levels above 10 mg/ml, 28 days post-treatment
  Intratumoral vascularity: No intratumoral vascularity was present
retinoblastoma; any time point or treatment dose (0.01-100 mg/ml subconjunctival)
  Toxicity: no evidence of toxicity was noted
retinoblastoma; single 20 ul subconjunctival injection, 100 mg/ml, Days 1, 3 and 7
  Intratumoral vascularization: significant reduction in intratumoral vascularization
[1]; 0.1 and 1.0 mg/ml
  Ocular irritation vs negative control eyes: no irritation was observed
[1]; 10 and 100 mg/ml
  Ocular irritation vs negative control eyes: Slight irritation was observed
[1]; Sub-Tenon's, 0-10 mg
  Irritation (Draize Scores): No Irritation
[2]; 10 mg/kg
  Average Vessel Lumen Area: 0.01186 mm^2
[2]; 20 mg/kg
  Average Vessel Lumen Area: 0.01101 mm^2
[2]; 100 mg/kg IP
  Average Vessel Lumen Area: 0.007612 mm^2
[2]; 100 mg/kg/day IP
  Less vascular lumen area compared to saline: approximately 50%
[3]; aqueous humor, 1 mg/ml intravitreal
  Cmax: 0.15 µM
[3]; aqueous humor, 10 mg/ml intravitreal
  Cmax: 0.79 µM
[3]; aqueous humor, 100 mg/ml intravitreal
  Cmax: 460 µM
[3]; cornea, 1 mg/ml intravitreal
  Cmax: 95 µM
[3]; cornea, 10 mg/ml intravitreal
  Cmax: 969 µM
[3]; cornea, 100 mg/ml intravitreal
  Cmax: 5870 µM
[3]; intravitreal injection
  Time of highest concentrations of drug in the eye: within the first hour
[3]; plasma, 1 mg/ml intravitreal
  Cmax: 0.4 µM
[3]; plasma, 10 mg/ml intravitreal
  Cmax: 0.2 µM
[3]; plasma, 100 mg/ml intravitreal
  Cmax: 0.78 µM
[3]; retina, 1 mg/ml intravitreal
  Cmax: 160 µM
[3]; retina, 10 mg/ml intravitreal
  Cmax: 1980 µM
[3]; retina, 100 mg/ml intravitreal
  Cmax: 10700 µM
[3]; retina, all concentrations tested, intravitreal
  Concentration of drug delivered: > 1 µM
[3]; sclera, 1 mg/ml intravitreal
  Cmax: 19 µM
[3]; sclera, 10 mg/ml intravitreal
  Cmax: 153 µM
[3]; sclera, 100 mg/ml intravitreal
  Cmax: 16100 µM
[3]; vitreous, 1 mg/ml intravitreal
  Cmax: 75 µM
[3]; vitreous, 10 mg/ml intravitreal
  Cmax: 757 µM
[3]; vitreous, 100 mg/ml intravitreal
  Cmax: 10000 µM

From patent US20040229960A1, “Compositions and methods of administering tubulin binding agents for the treatment of ocular diseases” (priority 2001, published 2004)
